Reference: US20120219536A1, “PURINE-TARGETED DIAGNOSIS AND THERAPY OF WOUNDS” (Queensland University of Technology, priority 2009, published 2012)
Read-outs that look alike come from different tables or passages of the source.

What was measured:
[1] = biological target: T1, xanthine oxidase (Homo sapiens, UniProt P47989); experiment: Xanthine oxidase activity and inhibition in pooled chronic wound fluid (CWF), RP-HPLC; type: biochemical; conditions: pooled CWF retentate, 10 μmol/L allopurinol, 37° C., 2.5 hr
T1 construct: from tissue; host or cells: pooled chronic wound fluid (CWF), retentate of 3K ultrafiltration
T1 sequence (P47989 whole entry): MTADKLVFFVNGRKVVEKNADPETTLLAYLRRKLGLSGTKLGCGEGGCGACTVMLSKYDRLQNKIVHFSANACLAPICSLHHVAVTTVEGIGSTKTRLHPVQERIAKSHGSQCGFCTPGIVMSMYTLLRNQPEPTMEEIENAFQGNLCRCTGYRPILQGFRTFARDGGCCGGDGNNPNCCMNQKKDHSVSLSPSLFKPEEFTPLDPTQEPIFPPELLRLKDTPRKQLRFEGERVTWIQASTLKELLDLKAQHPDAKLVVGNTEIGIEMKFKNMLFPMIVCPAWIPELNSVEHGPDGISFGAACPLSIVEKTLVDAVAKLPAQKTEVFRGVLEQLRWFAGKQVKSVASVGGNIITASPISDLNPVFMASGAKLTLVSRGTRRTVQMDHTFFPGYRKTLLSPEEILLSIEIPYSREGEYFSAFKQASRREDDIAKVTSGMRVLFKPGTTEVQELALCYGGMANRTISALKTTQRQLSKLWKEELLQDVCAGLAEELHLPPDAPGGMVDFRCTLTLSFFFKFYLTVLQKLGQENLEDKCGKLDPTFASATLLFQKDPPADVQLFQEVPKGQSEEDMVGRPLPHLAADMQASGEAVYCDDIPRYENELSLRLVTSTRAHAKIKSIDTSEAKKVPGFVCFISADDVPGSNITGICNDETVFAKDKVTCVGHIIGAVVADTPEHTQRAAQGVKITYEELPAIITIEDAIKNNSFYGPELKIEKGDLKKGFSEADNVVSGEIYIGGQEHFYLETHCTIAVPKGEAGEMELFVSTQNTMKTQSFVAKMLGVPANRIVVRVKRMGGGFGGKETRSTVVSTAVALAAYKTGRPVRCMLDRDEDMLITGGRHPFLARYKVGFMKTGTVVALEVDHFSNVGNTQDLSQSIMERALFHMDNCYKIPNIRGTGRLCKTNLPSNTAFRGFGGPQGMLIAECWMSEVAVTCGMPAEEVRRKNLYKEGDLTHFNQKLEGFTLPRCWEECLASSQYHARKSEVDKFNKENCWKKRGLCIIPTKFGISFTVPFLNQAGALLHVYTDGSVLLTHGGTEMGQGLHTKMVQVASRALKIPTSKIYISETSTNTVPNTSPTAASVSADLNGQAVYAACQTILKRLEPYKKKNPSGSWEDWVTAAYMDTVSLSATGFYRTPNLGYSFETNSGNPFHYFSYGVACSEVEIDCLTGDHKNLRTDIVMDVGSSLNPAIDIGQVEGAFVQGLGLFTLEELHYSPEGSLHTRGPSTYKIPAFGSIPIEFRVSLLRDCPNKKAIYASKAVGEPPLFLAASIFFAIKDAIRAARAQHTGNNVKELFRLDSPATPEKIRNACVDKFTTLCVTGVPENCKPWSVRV
Protocol: Additionally, samples were treated with allopurinol, a specific XO inhibitor, and the production of the metabolite oxypurinol determined at A254. Firstly, CWF was concentrated by centrifugation using nanosep 3K omega filters (PALL) at 10,000 g for 10 min at 4° C. The retentate was resuspended with 10 mM Tris-HCl buffer, pH 8.0 containing either 10 μmol/L of xanthine or allopurinol, then incubated at 37° C. for 2.5 hr in the ultrafiltration unit. After incubation, the reaction mixture was de-proteinised as per the manufacturer's instructions and the resulting filtrates analysed using reverse phase HPLC as previously outlined.
In further support of this finding, XO enzyme inhibition was assayed using a potent XO inhibitor, allopurinol. Allopurinol is rapidly metabolised by XO to generate the active metabolite, oxypurinol, which itself is an inhibitor of XO. […] Western blotting confirmed the presence of the enzyme in wound fluid (data not shown).

[2] = system: mice; conditions: cited from earlier work

For “1,4-dihydropyrazolo[4,3-d]pyrimidin-7-one [Allopurinol]”, the “production of the metabolite oxypurinol by XO” value ([1]; HPLC at A254) is listed as “a peak consistent with the retention time of oxypurinol standard was detected”, the “XO enzyme inhibition: production of uric acid” value ([1]; HPLC at A280) is listed as “did not reveal a peak corresponding to uric acid” and the “50% lethal dose (LD50)” value ([2]; given intraperitoneally) is listed as 160 mg/kg. For the same substance, the “50% lethal dose (LD50)” value ([2]; given orally) was 700 mg/kg.
